This data set is described as follows: gradient 5% acetonitrile 3 min, to 50% in 2 min, to 85% in 15 min, held 3 min, 100 µL/min. Conditions: column: Zorbax Extend-C18 2.1 x 50 mm; eluents: water / acetonitrile, 0.1% formic acid. In short, it runs like this:
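In both positive and negative ionization mode, a quadrupole time-of-flight mass spectrometer coupled to HPLC analyzed pure standards run in mixtures of ~100 molecules. The Zorbax Extend-C18 column (2.1 × 50 mm, 1.8 μm) was operated at 100 μL/min with water and acetonitrile, each containing 0.1% formic acid. The dead volume was 40 μL and the dwell volume 900 μL. Retention time came from adduct peaks that were computationally picked and individually inspected by hand.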
In turn, `Cc1cccc(OCc2nc(CCN(C)C(=O)NC3CCCCC3)no2)c1` gave an RP-LC retention time of 938 s.

The compound `O=C(Cn1ccn2nc(-c3ccccc3)c(CO)c2c1=O)Nc1ccc(Cl)cc1` yielded an RP-LC retention time of 856 s.

`CCn1c(=O)c(N2CCN(C(=O)Nc3ccccc3Cl)CC2)nc2ccccc21` showed an RP-LC retention time of 987 s.

`Cc1cccc(NC(=O)C2CCCN2S(=O)(=O)c2cc3c(cc2Cl)NC(=O)CO3)c1` (stereo not given) gave an RP-LC retention time of 822 s.

`Cn1c(=O)c(C(=O)NC2CC2)nc2ccccc21` returned an RP-LC retention time of 644 s.

Regarding `Cc1ccc(-c2nnc(N3CCC(C(=O)NCCC4=CCCCC4)CC3)o2)cc1`, the RP-LC retention time was found to be 990 s.

`Cc1ccccc1CNC(=O)C1(C)CCCN(C(=O)NCc2ccc(F)cc2)C1` (stereo not given) showed an RP-LC retention time of 890 s.

`CCC1Oc2ccc(Cl)cc2N(CC(=O)N2CCN(Cc3noc4ccccc34)CC2)C1=O` (stereo not given) showed an RP-LC retention time of 865 s.

Consider `O=C(NCc1cccs1)c1ccc2nc(CCc3ccccc3)oc2c1`, for which the RP-LC retention time worked out at 979 s.

As to `CC(C)n1nc(CNC(=O)C2CCN(S(=O)(=O)c3ccccc3)CC2)c2ccccc21`, the RP-LC retention time amounted to 918 s.

On to `CCc1nc(-c2csc(S(=O)(=O)N3CCCC(C(=O)Nc4cc(Cl)ccc4C)C3)c2)no1` (stereo not given), for which the RP-LC retention time came out at 1130 s.

As for `O=C(NCCCn1cccc1)C1COc2ccccc2O1` (stereo not given), the RP-LC retention time was 803 s.

Turning to `COC(=O)c1cc(C)nc2c1c(=O)n(Cc1ccc(Cl)cc1)c(=O)n2C`, the RP-LC retention time was 1080 s.

Compound `O=C(NCC1CC1)c1cn(-c2ccc(-c3nc(C4CC4)no3)cn2)cn1` displayed an RP-LC retention time of 843 s.

Turning to `Cc1ccc(NC(=O)NCC2(N3CCOCC3)CCOC2)cc1C` (stereo not given), the RP-LC retention time came out at 615 s.

Regarding `Cc1nccn1Cc1nc(-c2ccc(F)cc2)no1`, the RP-LC retention time amounted to 614 s.

`O=C(Cn1c(Cc2ccccc2)nc2ccccc21)N1CCOCC1` registered an RP-LC retention time of 593 s.

`Cc1ccc(-c2ccc(N3CCCC(C(=O)NCCCOC(C)C)C3)nn2)cc1C` (stereo not given): the RP-LC retention time was determined as 708 s.

For `COc1cc(OC)cc(-n2nnc(-c3nsc(Nc4ccc(OC)c(OC)c4)n3)c2C)c1`, the RP-LC retention time stood at 933 s.

In turn, `COc1cccc(N2CCN(Cc3nc4nc(C)cc(N5CCCC5)n4n3)CC2)c1` gave an RP-LC retention time of 619 s.

Consider `Cc1ccc(NC(=O)N2CCC(n3cnc4cc(Cl)ccc4c3=O)CC2)cc1F`, for which the RP-LC retention time worked out at 904 s.

In turn, `Cc1occc1C(=O)N[C@@H]1CN(S(C)(=O)=O)C[C@H]1CN(C)C` came in with an RP-LC retention time of 573 s.

`CC(C)c1nnc(C2CCN(C(=O)c3ccc4nc[nH]c4c3)CC2)o1` registered an RP-LC retention time of 545 s.

`COc1ccc(-c2ncc3c(n2)CCN(S(=O)(=O)c2cc(C)ccc2C)C3)cc1` displayed an RP-LC retention time of 1150 s.

Consider `Cc1cc(F)ccc1NS(=O)(=O)c1cc(-c2[nH]ncc2C(=O)N2CCCCC2)oc1C`, for which the RP-LC retention time was determined as 770 s.

Turning to `O=C(Cc1csc(SCc2cccc(Cl)c2)n1)Nc1ccc2c(c1)OCCO2`, the RP-LC retention time turned out to be 953 s.

Compound `O=C(Cn1cccc1-c1nnc(-c2ccccc2)o1)N1CCN(C2CCCCC2)CC1` registered an RP-LC retention time of 687 s.

For the compound `Cc1[nH]c(C(=O)N2CCCC(C(=O)NC3CCCCCC3)C2)c(C)c1C(=O)OC(C)C` (stereo not given), the RP-LC retention time was 944 s.

`COc1cccc(Cn2c(=O)c3sccc3n(Cc3nc(-c4ccccc4)no3)c2=O)c1` had an RP-LC retention time of 1000 s.

`CC(=O)N1CCc2ccccc2C1C(=O)NCc1ccc(C(F)(F)F)cc1` (stereo not given) showed an RP-LC retention time of 838 s.

`O=C(CSc1cc(N2CCCCC2)ncn1)Nc1cccc(Br)c1` came in with an RP-LC retention time of 1050 s.

Consider `CC1CN2C=NC(N3CCN(C(=O)Nc4ccc(Cl)cc4F)CC3)=CC2=N1` (stereo not given), for which the RP-LC retention time was 636 s.

`COc1ccc(-c2cc3n(n2)CCCN(S(=O)(=O)c2cccc(C#N)c2)C3)cc1OC` displayed an RP-LC retention time of 814 s.

For `Cc1ccccc1NC(=O)C1CCN(c2nc(C3CCC3)nc3csc(C)c23)CC1`, the RP-LC retention time was determined as 757 s.

Turning to `COc1ccc(NC(=O)c2cc3c(=O)oc4ccccc4c3n2C)cc1Cl`, the RP-LC retention time was 1020 s.

Take `CC(=O)N1C[C@@H](C(=O)NCCCc2c(C)noc2C)[C@H](c2nc(C)no2)C1`: the RP-LC retention time turned out to be 626 s.

`O=C(Nc1cccc2ccccc12)N1CCOCC1` came in with an RP-LC retention time of 639 s.

`CCC(C(=O)N1CCc2ccccc21)n1cnc2nc3c(cc2c1=O)CCCC3` (stereo not given) registered an RP-LC retention time of 899 s.

`Nc1cccc(N2CCn3c(nc4ccccc43)C2)c1`: the RP-LC retention time was found to be 525 s.

`O=C(Nc1cnn(-c2ncncc2N2CCCCC2)c1)C1CCCCC1` returned an RP-LC retention time of 821 s.

For `O=C(Cn1cnc2nc(N3CCOCC3)ncc2c1=O)Nc1ccc2c(c1)OCCO2`, the RP-LC retention time worked out at 658 s.

Regarding `Cc1cc(C(=O)N2CCCn3ccnc3C2C2CCCC2)n[nH]1` (stereo not given), the RP-LC retention time is 584 s.

As for `CCOC(=O)COC(=O)c1cn(-c2ccc(C)cc2)c(=O)c2ccccc12`, the RP-LC retention time stood at 718 s.

`COc1ccc(Br)c2c1-c1nc(NC(=O)c3ccc(F)cc3)sc1C2` displayed an RP-LC retention time of 1170 s.

The compound `Cc1ccc(C)c(NC(=O)Cn2nc3cc(C)nc(-c4ccccc4)n3c2=O)c1` gave an RP-LC retention time of 868 s.

`CC1CCc2onc(C(=O)Nc3cccc(Cl)c3)c2C1` (stereo not given): the RP-LC retention time worked out at 1160 s.

Compound `Cc1ccc(NC(=O)N2CCN(c3cnn4c(C)nnc4c3)CC2)cc1Cl` yielded an RP-LC retention time of 674 s.

`O=C(Cc1nnc(-c2ccc3ncccc3c2)o1)NCc1ccccc1` had an RP-LC retention time of 672 s.

`CCc1cc(C(=O)Nc2cc(C)cc(C)c2)nc2ccnn12` returned an RP-LC retention time of 1140 s.

With `O=C(NCc1ccc(F)cc1Cl)c1ccc2c(c1)ncn2CCN1CCCC1`, the RP-LC retention time was 598 s.

Regarding `COC(=O)c1nnn(-c2ccc(Cl)cc2)c1C(=O)OC`, the RP-LC retention time is 908 s.

In the case of `Cc1cc(C)nc(SCC(=O)Nc2ncc(Cc3ccc(Cl)cc3)s2)n1`, the RP-LC retention time stood at 942 s.

For `CSc1ccccc1-c1nnc(NC(=O)C(c2ccccc2)c2ccccc2)o1`, the RP-LC retention time was 895 s.

In turn, `O=C1[C@H]2CN(Cc3cccc(OC(F)(F)F)c3)C[C@H]2C(=O)N1CCc1ccccc1` showed an RP-LC retention time of 1000 s.

In turn, `Cc1sc(NC(=O)CSc2nnc(COc3ccccc3)o2)nc1-c1ccccc1` gave an RP-LC retention time of 877 s.

`CC1CCN(c2ccc(-c3noc(CN4CCN(c5ccccn5)CC4)n3)cn2)CC1` yielded an RP-LC retention time of 570 s.

`CN1CCC(N2CCN(C(=O)CCc3cn(C)nc3-c3ccc(F)cc3)CC2)CC1` displayed an RP-LC retention time of 559 s.

In turn, `O=C(NCc1ccco1)c1ccc2c(c1)CCCN2C(=O)c1ccc(Cl)cc1` registered an RP-LC retention time of 852 s.

`CNC(=O)C1CCCN(C(=O)Nc2ccc(NC(=O)Nc3ccc(C)c(C)c3)cc2)C1` (stereo not given) registered an RP-LC retention time of 722 s.

As to `O=C(CCCN1C(=O)CSc2ncccc21)N1CCN(c2ccccn2)CC1`, the RP-LC retention time was determined as 559 s.

As for `O=C(COc1ccccc1[N+](=O)[O-])Nc1nc(-c2ccccc2)cs1`, the RP-LC retention time was determined as 1040 s.

`O=C(NCc1ccc(F)cc1F)C1CCCN(c2ncnc3nn(-c4ccc(F)cc4)cc23)C1` (stereo not given) registered an RP-LC retention time of 700 s.

With `CCCNC(=O)c1cc(C)nc2c(Cl)cccc12`, the RP-LC retention time was found to be 753 s.

On to `Cc1cc(C)c(-c2noc(C)n2)c(NC(=O)c2ccccc2Cl)n1`, for which the RP-LC retention time is 744 s.

The compound `COc1ccc(-c2cc3c4nn(CC(=O)NC(C)C)c(=O)n4ccn3n2)cc1` showed an RP-LC retention time of 758 s.

The compound `Cc1ccc(N2CCC(NC(=O)CC(C)C)C2=O)cc1` (stereo not given) displayed an RP-LC retention time of 762 s.

Take `N#CC1=CN(c2ccc3c(c2)CCC3)c2ccccc2S1(=O)=O`: the RP-LC retention time worked out at 1010 s.

`Cc1ccc(N2CC(c3noc(-c4ccc(OC(F)(F)F)cc4)n3)CC2=O)cc1` (stereo not given) gave an RP-LC retention time of 1170 s.

`CCOCCCNC(=O)N1CCN(Cc2nc3cc(C(=O)N(C)C)ccc3n2CC)CC1` yielded an RP-LC retention time of 581 s.

`COc1ccc(-c2cc(=O)n(CCNC(=O)c3c(F)cccc3F)cn2)cc1` came in with an RP-LC retention time of 678 s.

`COc1ccc(-c2nc(C)cc(C)c2CNC(=O)c2ccco2)cc1` returned an RP-LC retention time of 585 s.

Consider `CNC(=O)C1CCCN(c2nc3ncn(CC(=O)Nc4c(C)cccc4C)c(=O)c3s2)C1` (stereo not given), for which the RP-LC retention time is 661 s.

Turning to `NC(=O)Cc1ccc(NS(=O)(=O)c2cccs2)cc1`, the RP-LC retention time was 604 s.

`COc1ccc(C2CC(=O)N(c3cccc(Br)c3)C(=O)C2)cc1` yielded an RP-LC retention time of 970 s.

The compound `COc1cn(CC(=O)Nc2cc(C)on2)c(CN2CCCCC2)cc1=O` registered an RP-LC retention time of 566 s.

Compound `Cc1ccc(-c2csc(NC(=O)COc3ccc(Cl)cc3C)n2)cc1` returned an RP-LC retention time of 1350 s.

In turn, `Cn1ncc2c(N3CCOCC3)nc(C(=O)NCc3ccc(F)cc3)nc21` displayed an RP-LC retention time of 708 s.

`Cc1nc([C@@H]2CN(S(=O)(=O)c3ccc(Cl)s3)C[C@H]2C(N)=O)n[nH]1` gave an RP-LC retention time of 631 s.

As to `COc1ccc(CNC(=O)C2CN(S(=O)(=O)C3CC3)CC23CCCCC3)cc1` (stereo not given), the RP-LC retention time was 891 s.

Compound `O=c1c2nc(-c3ccc(F)cc3)cn2ccn1-c1cccc(Cl)c1` registered an RP-LC retention time of 867 s.

The values above are taken from the METLIN SMRT retention time set (Domingo-Almenara et al. 2019).
